Laboratory results taken from patent US20250025451A1, “TREATMENT OF CANCER WITH KDM4 INHIBITORS” (Celgene Corporation, priority 2021, published 2025).
pIC50: −log10 of the molar value.

Columns and labels:
PNUTS mRNA = assay: inhibition of PNUTS gene expression by qPCR in MDA-MB-231 cells; assay type: cell-based; conditions: Homo sapiens, 24 hours
Description: In a study of the inhibitory effects of Compound 1 on the gene expression of PNUTS, MDA-MB-231 cells were treated for 24 hours and expression levels of PNUTS mRNA in response to Compound 1 treatment were measured by qPCR. The inhibition of PNUTS mRNA was quantified by calculating mean percent change in PNUTS gene expression following the Compound 1 treatment relative to the DMSO-treated control and IC50 value was calculated as concentration where inhibition was half-maximal. The IC50 value was 0.007 μM.

[1] = tested on: GXA-3036 gastric adenocarcinoma patient-derived xenograft; assay: in vivo efficacy, GXA-3036 gastric adenocarcinoma patient-derived xenograft model; conditions: GXA-3036 PDX; for Median Tumor Volume Diff. (Day 35): Day 35 minus Day 0; for Median Tumor Volume Diff. (Day 38): Day 38 minus Day 0
Description: (§1) The therapeutic in vivo efficacy of Compound 1 was evaluated in SU60 colorectal cancer, KYSE-150 esophageal cancer, COH70 triple-negative breast cancer, GXA-3036 gastric adenocarcinoma and OCI-LY19 Diffuse Large B-Cell Non-Hodgkin's Lymphoma xenograft models. In all studies, efficacy was determined based on percent tumor growth inhibition (TGI), differences in mean tumor growth, and statistical assessment of differences in net tumor volume distributions on the day of TGI analysis between control and treated animals. Tolerability was assessed based on differences in mean body weights between control and treated animals over the course of the study.
The in vivo efficacy and tolerability of Compound 1, administered orally as the lysine salt form suspended in a vehicle comprised of 5% 2-hydroxypropyl-beta-cyclodextrin (HPBCD) in 50 mM phosphate buffer (pH 7.4), were evaluated in female immunodeficient NMRI-Foxn1nu mice using the subcutaneous gastric adenocarcinoma GXA-3036, a moderately differentiated intestinal type (based on Lauren's criteria) PDX model of Asian origin. Each mouse was inoculated subcutaneously in the right flank with a GXA-3036 tumor fragment (3 to 4 mm edge length). When the average tumor size reached ˜109 mm3, test animals were randomized into 5 groups consisting of 8 mice per group and treatments were initiated. Control mice received 5% HPBCD in 50 mM phosphate buffer (pH 7.4) vehicle PO 3 on/4 off. Treated mice received the Compound 1 lysine salt form in vehicle at 5, 15, or 50 mg/kg on the same schedule or at 22.5 mg/kg 2 on/5 off. One control animal, classified as moribund, was euthanized on Day 17 and was censored from analysis. Individual tumors were measured twice weekly in two dimensions using a caliper, and the tumor volumes (TV) in mm3 were calculated using the formula: TV=0.5 a×b2, where a and b are the long and short diameters in mm, respectively. Mean tumor volumes±SEM were calculated and plotted versus days of dosing (FIG. 14 left panel). Body weights were measured twice weekly. Body weights±SEM were calculated and plotted versus days of dosing (FIG. 14 right panel).
TGI was determined on Days 35 and 38 as (1−Difftreated/Diffcontrol)×100. The differences in median net tumor volumes on the days of TGI analysis for treated versus control animals were evaluated statistically using the non-parametric Kruskal-Wallis test followed by Dunn's multiple comparisons test. The reported adjusted p-values are for both days of TGI analysis where a calculated probability (p)≤0.05 was considered statistically significant.

[2] = tested on: SU60 patient-derived colorectal cancer xenograft; assay: in vivo efficacy, SU60 patient-derived colorectal cancer xenograft model; conditions: SU60 CRC PDX; for % TGI: Day 19; for Median Tumor Volumes Diff.: Day 19 minus Day 1
Description: as §1
The in vivo therapeutic efficacy and tolerability of Compound 1, administered orally as the free acid form in a vehicle comprised of 50% polyethylene glycol 400 (PEG 400) and 50% PBS (pH 9), was evaluated in the SU60 CRC PDX model established in female non-obese diabetic/severe combined immunodeficiency (NOD/SCID) gamma (NSG) mice. Each mouse was inoculated subcutaneously in the abdomen with 2×10^6 SU60 tumor cells (0.1 ml) suspended in Matrigel. When the average tumor size reached ˜270 mm3, test animals were randomized into 6 groups consisting of 8 mice per group and treatments were initiated. Control mice received 50% PEG 400 and 50% PBS (pH 9) vehicle PO QD×7. Treated mice received Compound 1 in vehicle PO at 20 or 10 mg/kg QD×7, at 20 mg/kg QOD, at 23 mg/kg 3 on/4 off, or at 14 mg/kg at 5 on/2 off. TGI was determined on Day 19 as (1−Diff treated/Diff control)×100. The difference in mean net tumor volumes on the day of TGI analysis for treated versus control animals was evaluated statistically using one-way analysis of variance (ANOVA) followed by Dunnett's multiple comparisons test. Adjusted p-values are shown where a calculated probability (p)≤0.05 was considered statistically significant. Individual tumors were measured twice weekly in two dimensions using a caliper, and the tumor volumes (TV) in mm3 were calculated using the formula: TV=0.5 (l×w×h), where l, w, and h are the tumor length, width, and height in mm, respectively; Mean tumor volumes±standard error of the mean (SEM) were calculated and plotted versus days of dosing (FIG. 10 left panel). Body weights were measured twice weekly. Body weights±SEM were calculated and plotted versus days of dosing (FIG. 10 right panel).

[3] = 15 mg/kg PO 3 on/4 off, 15 mg/kg
[4] = 22.5 mg/kg PO 2 on/5 off, 22.5 mg/kg
[5] = 50 mg/kg PO 3 on/4 off, 50 mg/kg
[6] = 14 mg/kg (70 weekly) PO 5 on/2 off
[7] = 23 mg/kg (69 weekly) PO 3 on/4 off

## CC(C)c1ccc(N(C)c2ccc3c(c2)OCC[C@H]3CNc2cnccc2C(=O)O)cc1 [Compound 1, 3-({[(4R)-7-{methyl[4-(propan-2-yl)phenyl]amino}-3,4-dihydro-2H-1-benzopyran-4-yl]methyl}amino)pyridine-4-carboxylic acid]
PNUTS mRNA
  pIC50: 8.15
[1]; female NMRI-Foxn1nu mice, all regimens
  tolerability (mean body weights): well-tolerated
[1]; female NMRI-Foxn1nu mice, lysine salt 5 mg/kg (free acid equivalents) PO 3 on/4 off
  Median Tumor Volume Day 35: 391 mm^3
[1]; female NMRI-Foxn1nu mice, lysine salt 15 mg/kg (free acid equivalents) PO 3 on/4 off
  Median Tumor Volume Day 35: 278 mm^3
[1]; female NMRI-Foxn1nu mice, lysine salt 22.5 mg/kg (free acid equivalents) PO 2 on/5 off
  Median Tumor Volume Day 35: 447 mm^3
[1]; female NMRI-Foxn1nu mice, lysine salt 50 mg/kg (free acid equivalents) PO 3 on/4 off
  Median Tumor Volume Day 35: 371 mm^3
[1]; 5 mg/kg PO 3 on/4 off
  Median Tumor Volume Day 38: 460 mm^3
  Median Tumor Volume Diff. (Day 35): 282 mm^3
  Median Tumor Volume Diff. (Day 38): 351 mm^3
[1]; 5 mg/kg PO 3 on/4 off, 5 mg/kg
  % TGI (Day 35): 52%
  % TGI (Day 38): 43%
[1]; 15 mg/kg PO 3 on/4 off
  Median Tumor Volume Day 38: 298 mm^3
  Median Tumor Volume Diff. (Day 35): 169 mm^3
  Median Tumor Volume Diff. (Day 38): 189 mm^3
[1]; [3]
  % TGI (Day 35): 71%
  % TGI (Day 38): 69%
[1]; 22.5 mg/kg PO 2 on/5 off
  Median Tumor Volume Day 38: 470 mm^3
  Median Tumor Volume Diff. (Day 35): 338 mm^3
  Median Tumor Volume Diff. (Day 38): 361 mm^3
[1]; [4]
  % TGI (Day 35): 42%
  % TGI (Day 38): 41%
[1]; 50 mg/kg PO 3 on/4 off
  Median Tumor Volume Day 38: 403 mm^3
  Median Tumor Volume Diff. (Day 35): 262 mm^3
  Median Tumor Volume Diff. (Day 38): 294 mm^3
[1]; [5]
  % TGI (Day 35): 55%
  % TGI (Day 38): 52%
[2]; female NSG mice, all regimens, over the course of the study
  tolerability (mean body weight changes): well-tolerated
[2]; female NSG mice, free acid 10 mg/kg (70 weekly) PO QD x7
  Median Tumor Volumes Day 19: 1151 mm^3
[2]; female NSG mice, free acid 14 mg/kg (70 weekly) PO 5 on/2 off
  Median Tumor Volumes Day 19: 1300 mm^3
[2]; female NSG mice, free acid 20 mg/kg (70 weekly) PO QOD
  Median Tumor Volumes Day 19: 1527 mm^3
[2]; female NSG mice, free acid 20 mg/kg (140 weekly) PO QD x7
  Median Tumor Volumes Day 19: 767 mm^3
[2]; female NSG mice, free acid 23 mg/kg (69 weekly) PO 3 on/4 off
  Median Tumor Volumes Day 19: 1121 mm^3
[2]; 10 mg/kg (70 weekly) PO QD x7
  % TGI: 48%
  Median Tumor Volumes Diff.: 901 mm^3
[2]; [6]
  % TGI: 42%
  Median Tumor Volumes Diff.: 1019 mm^3
[2]; 20 mg/kg (70 weekly) PO QOD
  % TGI: 29%
  Median Tumor Volumes Diff.: 1242 mm^3
[2]; 20 mg/kg (140 weekly) PO QD x7
  % TGI: 71%
  Median Tumor Volumes Diff.: 506 mm^3
[2]; [7]
  % TGI: 52%
  Median Tumor Volumes Diff.: 833 mm^3
